# Source: ChEMBL document CHEMBL4825682, “Discovery of novel purinylthiazolylethanone derivatives as anti-Candida albicans agents through possible multifaceted mechanisms” (Eur J Med Chem, 2021)
# Activity calls are given as the source filed them. The rule behind the calls is not given here.
# Experiments:
# Candida albicans [1] = test: Antifungal activity against Candida albicans assessed as fungal growth inhibition by CLSI protocol based microbroth dilution method; format: functional
# Candida albicans [2] = test: Antifungal activity against Candida albicans ATCC 90023 assessed as fungal growth inhibition by CLSI protocol based microbroth dilution method; format: functional
# Candida tropicalis [3] = test: Antifungal activity against Candida tropicalis assessed as fungal growth inhibition by CLSI protocol based microbroth dilution method; format: functional
# Aspergillus fumigatus = test: Antifungal activity against Aspergillus fumigatus assessed as fungal growth inhibition by CLSI protocol based microbroth dilution method; format: functional
# Candida parapsilosis = test: Antifungal activity against Candida parapsilosis ATCC 22019 assessed as fungal growth inhibition by CLSI protocol based microbroth dilution method; format: functional; settings: Lodderomyces parapsilosis
# [4] = Hemolytic activity in human RBC; format: cell-based, Erythrocyte; settings: human red blood cells (erythrocytes)
# [5] = Hemolytic activity in human RBC at MIC relative to control; format: ADME, cell-based, Erythrocyte; settings: human red blood cells (erythrocytes), read-out: Activity
# [6] = Hemolytic activity in human RBC at 8 times MIC relative to control; format: ADME, cell-based, Erythrocyte; settings: human red blood cells (erythrocytes), read-out: Activity
# L02 [7] = test: Cytotoxicity against human L02 cells assessed as increase in cell viability measured after 72 hrs by CCK8 assay relative to control; format: cell-based; settings: l02, 72 h
# L02 [8] = test: Cytotoxicity against human L02 cells at 100 ug/ml measured after 72 hrs by CCK8 assay; format: cell-based; settings: l02, 72 h, dose 100 µg/ml
# Candida albicans [9] = test: Antifungal activity against Candida albicans measured after 16 passages; format: functional, organism-based
# Candida tropicalis [10] = test: Potentiation of fluconazole-induced antifungal activity against Candida tropicalis assessed as fluconazole MIC (reference value: […] ug/ml); format: functional
# Candida albicans [11] = test: Synergistic antifungal activity against Candida albicans assessed as fractional inhibitory concentration index in presence of fluconazole; format: functional
# Candida albicans [12] = test: Potentiation of fluconazole-induced antifungal activity against Candida albicans assessed as fluconazole MIC (reference value: […] ug/ml); format: functional
# Candida tropicalis [13] = test: Additive antifungal activity against Candida tropicalis assessed as fractional inhibitory concentration index in presence of fluconazole; format: functional
# Candida albicans [14] = test: Antibiofilm activity against Candida albicans assessed as inhibition of biofilm formation at 0.5 to 5 times MIC by Alamar blue assay; format: functional, organism-based
# Cell membrane [15] = test: Induction of cell membrane permeabilization in Candida albicans up to 6 times MIC by propidium iodide staining based fluorescence assay; format: subcellular
# Cell wall [16] = test: Induction of cell wall damage in Candida albicans; format: subcellular
# Cell wall [17] = test: Induction of cell wall damage in Candida tropicalis; format: subcellular
# Cell wall [18] = test: Induction of cell wall damage in Aspergillus fumigatus; format: subcellular
# Cell membrane [19] = test: Induction of cytoplasmic membrane depolarization in Candida albicans by diSC3(5)-dye based assay; format: subcellular
# Cell membrane [20] = test: Induction of cell membrane disruption in Candida albicans assessed as increase in protein leakage by Bradford assay; format: subcellular
# Cell membrane [21] = test: Induction of cell membrane destruction in Candida albicans assessed as reduction in LDH activity at MIC relative to control; format: subcellular; design: scale not given: the % may be the effect or the level left
# Cell membrane [22] = test: Induction of cell membrane destruction in Candida albicans assessed as reduction in LDH activity at 4 times MIC relative to control; format: subcellular; design: scale not given: the % may be the effect or the level left
# Candida albicans [23] = test: Antifungal activity against Candida albicans assessed as reduction in metabolic activity at 0.5 to 6 times MIC by resazurin assay; format: functional, organism-based
# Candida albicans [24] = test: Induction of oxidative stress in Candida albicans assessed as increase in ROS generation by […] probe based assay; format: functional, organism-based
# Candida albicans [25] = test: Induction of reactive nitrogen species generation in Candida albicans assessed as increase in NO level at 6 times MIC by Greiss reagent assay relative to control; format: functional
# Candida albicans [26] = test: Induction of oxidative stress in Candida albicans assessed as decrease in cellular GSH level; format: functional, organism-based
structure (smiles),measurement,setting,value
CCN1CCN(c2ncnc3c2ncn3CC(=O)c2nccs2)CC1,MIC,Candida albicans [1],32 µg/mL
same,MIC,Candida albicans [2],16 µg/mL
same,MIC,Candida tropicalis [3],16 µg/mL
same,MIC,Aspergillus fumigatus,32 µg/mL
same,MIC,Candida parapsilosis,256 µg/mL
same,HC50,[4],> 256 µg/mL
CCCCN1CCN(c2ncnc3c2ncn3CC(=O)c2nccs2)CC1,MIC,Candida albicans [1],4 µg/mL
same,MIC,Candida albicans [2],64 µg/mL
same,MIC,Candida tropicalis [3],128 µg/mL
same,MIC,Aspergillus fumigatus,256 µg/mL
same,MIC,Candida parapsilosis,64 µg/mL
same,HC50,[4],> 256 µg/mL
CCCCCCCCCCCCCCCCCCN1CCN(c2ncnc3c2ncn3CC(=O)c2nccs2)CC1,MIC,Candida albicans [1],2 µg/mL
same,MIC,Candida albicans [2],256 µg/mL
same,MIC,Candida tropicalis [3],64 µg/mL
same,MIC,Aspergillus fumigatus,32 µg/mL
same,MIC,Candida parapsilosis,128 µg/mL
same,HC50,[4],> 256 µg/mL
C#CCN1CCN(c2ncnc3c2ncn3CC(=O)c2nccs2)CC1,MIC,Candida albicans [1],256 µg/mL
same,MIC,Candida albicans [2],16 µg/mL
same,MIC,Candida tropicalis [3],256 µg/mL
same,MIC,Aspergillus fumigatus,32 µg/mL
same,MIC,Candida parapsilosis,256 µg/mL
same,HC50,[4],> 256 µg/mL
O=C(Cn1cnc2c(N3CCCCCC3)ncnc21)c1nccs1,MIC,Candida albicans [1],256 µg/mL
same,MIC,Candida albicans [2],8 µg/mL
same,MIC,Candida tropicalis [3],256 µg/mL
same,MIC,Aspergillus fumigatus,64 µg/mL
same,MIC,Candida parapsilosis,256 µg/mL
same,HC50,[4],> 256 µg/mL
O=C(Cn1cnc2c(N3CCCCC3)ncnc21)c1nccs1,MIC,Candida albicans [1],1 µg/mL
same,MIC,Candida albicans [2],256 µg/mL
same,MIC,Candida tropicalis [3],64 µg/mL
same,MIC,Aspergillus fumigatus,128 µg/mL
same,MIC,Candida parapsilosis,64 µg/mL
same,HC50,[4],> 256 µg/mL
O=C(Cn1cnc2c(N3CCN(CC(=O)N4CCCC4)CC3)ncnc21)c1nccs1,MIC,Candida albicans [1],2 µg/mL
same,MIC,Candida albicans [2],256 µg/mL
same,MIC,Candida tropicalis [3],32 µg/mL
same,MIC,Aspergillus fumigatus,64 µg/mL
same,MIC,Candida parapsilosis,128 µg/mL
same,HC50,[4],> 256 µg/mL
CCCCCCCCCCCCN1CCN(c2ncnc3c2ncn3CC(=O)c2nccs2)CC1,MIC,Candida albicans [1],4 µg/mL
same,MIC,Candida albicans [2],16 µg/mL
same,MIC,Candida tropicalis [3],8 µg/mL
same,MIC,Aspergillus fumigatus,16 µg/mL
same,MIC,Candida parapsilosis,8 µg/mL
same,HC50,[4],> 256 µg/mL
CCOC(=O)CN1CCN(c2ncnc3c2ncn3CC(=O)c2nccs2)CC1,MIC,Candida albicans [1],1 µg/mL
same,MIC,Candida albicans [2],16 µg/mL
same,MIC,Candida tropicalis [3],8 µg/mL
same,MIC,Aspergillus fumigatus,16 µg/mL
same,MIC,Candida parapsilosis,8 µg/mL
same,HC50,[4],> 256 µg/mL
same,hemolysis at 1 x MIC,[5],2.6%
same,hemolysis at 8 x MIC,[6],3.8%
same,Activity,L02 [7],> 60%
same,Activity,L02 [8],Toxic
same,Activity,Candida albicans [9],Active
same,MIC,Candida tropicalis [10],8 µg/mL
same,fractional inhibitory concentration index (FICI),Candida albicans [11],0.56
same,MIC,Candida albicans [12],0.0625 µg/mL
same,fractional inhibitory concentration index (FICI),Candida tropicalis [13],1.02
same,inhibition,Candida albicans [14],Active
same,Activity,Cell membrane [15],Active
same,Activity,Cell wall [16],Active
same,Activity,Cell wall [17],Active
same,Activity,Cell wall [18],inactive
same,Activity,Cell membrane [19],Active
same,Activity,Cell membrane [20],Dose-Dependent Effect
same,Activity,Cell membrane [21],30%
same,Activity,Cell membrane [22],50%
same,Activity,Candida albicans [23],Active
same,Activity,Candida albicans [24],Dose-Dependent Effect
same,fold change (FC),Candida albicans [25],3.6
same,Activity,Candida albicans [26],Active
O=C(Cn1cnc2c(N3CCN(Cc4ccccc4F)CC3)ncnc21)c1nccs1,MIC,Candida albicans [1],256 µg/mL
same,MIC,Candida albicans [2],2 µg/mL
same,MIC,Candida tropicalis [3],256 µg/mL
same,MIC,Aspergillus fumigatus,32 µg/mL
same,MIC,Candida parapsilosis,256 µg/mL
same,HC50,[4],> 256 µg/mL
N#CCN1CCN(c2ncnc3c2ncn3CC(=O)c2nccs2)CC1,MIC,Candida albicans [1],8 µg/mL
same,MIC,Candida albicans [2],256 µg/mL
same,MIC,Candida tropicalis [3],4 µg/mL
same,MIC,Aspergillus fumigatus,16 µg/mL
same,MIC,Candida parapsilosis,8 µg/mL
same,HC50,[4],> 256 µg/mL
N#CCN(CC#N)C(=O)CN1CCN(c2ncnc3c2ncn3CC(=O)c2nccs2)CC1,MIC,Candida albicans [1],16 µg/mL
same,MIC,Candida albicans [2],32 µg/mL
same,MIC,Candida tropicalis [3],64 µg/mL
same,MIC,Aspergillus fumigatus,64 µg/mL
same,MIC,Candida parapsilosis,128 µg/mL
same,HC50,[4],> 256 µg/mL
CCOC(=O)CN1CCN(c2ncnc3c2ncn3C/C(=N/O)c2nccs2)CC1,MIC,Candida albicans [1],4 µg/mL
same,MIC,Candida albicans [2],16 µg/mL
same,MIC,Candida tropicalis [3],64 µg/mL
same,MIC,Aspergillus fumigatus,16 µg/mL
same,MIC,Candida parapsilosis,64 µg/mL
same,HC50,[4],> 256 µg/mL
O=C(Cn1cnc2c(N3CCN(Cc4ccc(F)cc4)CC3)ncnc21)c1nccs1,MIC,Candida albicans [1],32 µg/mL
same,MIC,Candida albicans [2],256 µg/mL
same,MIC,Candida tropicalis [3],64 µg/mL
same,MIC,Aspergillus fumigatus,32 µg/mL
same,MIC,Candida parapsilosis,256 µg/mL
same,HC50,[4],> 256 µg/mL
CC(C)(C)OC(=O)N1CCN(C(=O)CN2CCN(c3ncnc4c3ncn4CC(=O)c3nccs3)CC2)CC1,MIC,Candida albicans [1],32 µg/mL
same,MIC,Candida albicans [2],16 µg/mL
same,MIC,Candida tropicalis [3],64 µg/mL
same,MIC,Aspergillus fumigatus,128 µg/mL
same,MIC,Candida parapsilosis,128 µg/mL
same,HC50,[4],> 256 µg/mL
O=C(Cn1cnc2c(N3CCN(Cc4ccccc4Cl)CC3)ncnc21)c1nccs1,MIC,Candida albicans [1],256 µg/mL
same,MIC,Candida albicans [2],2 µg/mL
same,MIC,Candida tropicalis [3],256 µg/mL
same,MIC,Aspergillus fumigatus,64 µg/mL
same,MIC,Candida parapsilosis,256 µg/mL
same,HC50,[4],> 256 µg/mL
C=CCN1CCN(c2ncnc3c2ncn3CC(=O)c2nccs2)CC1,MIC,Candida albicans [1],4 µg/mL
same,MIC,Candida albicans [2],64 µg/mL
same,MIC,Candida tropicalis [3],32 µg/mL
same,MIC,Aspergillus fumigatus,64 µg/mL
same,MIC,Candida parapsilosis,8 µg/mL
same,HC50,[4],> 256 µg/mL
